Laboratory results: patent US7074822B2, “Alkyl carbamate-substituted β-lactones, process for their preparation, and pharmaceutical compositions containing them” (Solvay Pharmaceuticals GmbH, priority 2004, dated 2006)

Each molecule was assayed against T1, porcine pancreatic lipase (Sus scrofa, UniProt P00591) (assay: Olive oil test: inhibition of porcine pancreatic lipase with respect to triglycerides in olive oil (pH-stat titration)). Details: substrate olive oil emulsion, pH 9.0, 37.0° C., 10 minutes pre-incubation in ice bath; read-out: IC50, porcine pancreatic lipase-inhibiting action in vitro with respect to triglycerides in olive oil.
T1 construct: lipase standard LS7 in accordance with the rules of the “Fédération Internationale Pharmaceutique” (=FIP) (porcine pancreatic lipase, 36,700 FIP units/g); host or cells: porcine pancreas
T1 sequence (P00591 1-450): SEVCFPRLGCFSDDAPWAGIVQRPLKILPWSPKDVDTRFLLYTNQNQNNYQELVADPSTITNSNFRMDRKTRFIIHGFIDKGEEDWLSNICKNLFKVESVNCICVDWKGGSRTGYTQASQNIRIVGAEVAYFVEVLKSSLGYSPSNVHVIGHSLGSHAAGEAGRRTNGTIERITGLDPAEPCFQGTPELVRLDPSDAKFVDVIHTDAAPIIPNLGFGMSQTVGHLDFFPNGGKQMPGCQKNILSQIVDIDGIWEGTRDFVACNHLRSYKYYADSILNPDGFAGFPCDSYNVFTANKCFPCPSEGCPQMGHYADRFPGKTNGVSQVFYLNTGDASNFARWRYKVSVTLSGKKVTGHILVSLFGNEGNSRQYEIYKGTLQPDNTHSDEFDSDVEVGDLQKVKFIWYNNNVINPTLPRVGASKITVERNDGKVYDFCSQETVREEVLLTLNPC
Assay type: biochemical
Protocol: In a heterogeneous reaction, the inhibition of the lipolytic action of porcine pancreatic lipase was determined under the influence of the test substances of Formula I with respect to the triglycerides contained in the test substrate olive oil. The fatty acids released by the lipase were titrated with sodium hydroxide solution to pH 9.0.
(§1) The reagents given below were prepared:
A. Gum Arabic Solution 10% (m/V)
200 g gum arabic (Acaciae gummi in accordance with the specifications of the German Pharmacopeia (=DAB)/European Pharmacopeia (=Ph.Eur.) was dissolved in 2000 ml ultrapure water with stirring and if necessary centrifugation. The solution was stored at −20° C. in plastic vessels of capacity of 250 ml. The amount required per day was thawed as required.
B. Sodium Taurocholate Solution 8% (m/V)
8 g sodium taurocholate (FIP) was dissolved in 100 ml ultrapure water.
60.6 mg Tris(hydroxymethyl)aminomethane p.a. (Merck, No. 8382) and 234 mg sodium chloride (p.a.) were dissolved in 100 ml ultrapure water.
D. 0.1 N Sodium Hydroxide Solution […]
1 ml lipase reference suspension was incubated with the respective amount of inhibitor solution for 10 minutes in an ice bath. […] The sodium hydroxide consumption between the 1st and the 5th minute was evaluated. […]

Row | IC50 | Structure (SMILES)
1 | 17 nM | CCCCCC[C@@H]1C(=O)O[C@H]1CCCCCOC(=O)Nc1ccc(Oc2ccccc2)cc1 (relative stereo) [Example 1, trans-(3-hexyl-4-oxo-oxetan-2-yl)-pentyl-(phenoxyphenyl)-carbamate]

These molecules were tested against T1, porcine pancreatic lipase (assay: p-nitrophenyl palmitate (pNpp) test: inhibition of lipolytic action of porcine pancreatic lipase in vitro). Details: substrate p-nitrophenyl palmitate, 37° C., absorbance at 405 nm; read-out: IC50, porcine pancreatic lipase-inhibiting action in vitro with respect to pNpp.
Assay type: biochemical
Protocol: 1. p-nitrophenyl Palmitate Test
In this test the inhibition of the lipolytic action of porcine pancreatic lipase with respect to the test substrate p-nitrophenyl palmitate(=pNpp) under the influence of the test substances of Formula I was determined. Therein, the change in the relative absorbance of the investigated solutions caused by the lipolytic release of p-nitrophenol from pNpp was measured.
as §1
To prepare a “solution A”, 45 mg pNpp was dissolved in 15 ml isopropanol by sonication with ultrasound. To prepare a “solution B”, 558 mg Na-deoxycholate dry substance and 67.5 mg gum arabic were dissolved in 135 ml 0.05 M sodium phosphate buffer (pH=8.0). 15 ml “solution A” was injected into 135 ml ice-cold “solution B” in […] of 1.25 ml with an Eppendorf hand dispenser with stirring at 400 rpm at the highest possible rate. The initial absorbance E1 when determining the blank reading was less than 0.250 U each time.
B. Sodium Chloride Solution 1% (mN)
10 g sodium chloride (NaCl, p.a.) was dissolved in 1000 ml ultrapure water.
C. Lipase Standard Solution (50 FIP units/ml)
120.8 mg lipase standard LS7 in accordance with the rules of the “Fédération Internationale Pharmaceutique” (=FIP) (porcine pancreatic lipase, 36,700 FIP units/g) was dissolved in 50 ml ice-cold sodium chloride solution (B) and filtered through a 0.2 μm syringe filter. 20 ml of the filtrate was diluted with […] sodium chloride solution (B) (corresponding to 50 FIP units/ml).
D. Lipase Calibration Solutions (10–20–30–40 FIP units/ml)
In each case 2–4–6–8 ml lipase standard solution (C) was made up to 10 ml with sodium chloride solution (B) and stored in an ice bath.
E. Lipase Stock Solution (40 FIP units/ml)
8 ml lipase standard solution was made up to 10 ml with sodium chloride solution (B) and stored in an ice bath.
The lipase-inhibitory compounds of Formula I were dissolved in DMSO. A dilution series of 100–0.1 nmol/ml was produced from this stock solution. 100 μl of these dilutions were used in the test. The dilutions were adapted such that the maximum residual activity of the lipase was >90%.
Measurement was effected at 37° C., and the absorbances were measured at a wavelength of 405 nm. The photometric measuring station comprised a photometer and an agitator (from Eppendorf). The photometer was adjusted to 0 U with water. At the start and end of the investigation series, in each case eight blank readings and one lipase calibration series were measured. For the blank readings, in each case 1 ml substrate solution was mixed with 100 μl DMSO, the mixture was shaken for 5 seconds and kept at a controlled temperature for 5 minutes. Then 100 μl sodium chloride solution (B) were added thereto by pipette and the mixture was shaken for a further 5 seconds. After 2 minutes, the increase in absorbance was detected for 4 minutes. The absorbance starting value E1 when determining the blank readings was in each case less than 0.250 U.
For the calibration, 1 ml substrate solution was placed in each of eight cuvettes, mixed with 100 μl DMSO, shaken for 5 seconds and kept at a controlled temperature for 5 minutes. The reaction was started with 100 μl calibration solution. After 2 minutes, the kinetics were detected for 4 minutes. Each concentration was measured twice.
For measuring the inhibitor solutions, 1 ml substrate solution was placed in each of eight cuvettes, mixed with 100 μl inhibitor solution, shaken for 5 seconds and then kept at a controlled temperature for 5 minutes. The reaction was started with 100 μl lipase stock solution. After 2 minutes, the kinetics were detected for 4 minutes. The inhibitor solutions and the lipase standard solution were each prepared immediately before the start of the investigation series. […]

Row | Structure (SMILES) | IC50
2 | CCCCCCC1C(=O)OC1CCCCCOC(=O)Nc1ccccc1 (mixture of isomers) [Example 2, cis/trans-5-(3-hexyl-4-oxo-oxetan-2-yl)pentyl-phenyl carbamate] | 47 nM
3 | CCCCCC[C@@H]1C(=O)O[C@H]1CCCCCOC(=O)Nc1ccc(Oc2ccccc2)cc1 (relative stereo) [Example 1, trans-(3-hexyl-4-oxo-oxetan-2-yl)-pentyl-(phenoxyphenyl)-carbamate] | 106 nM
4 | CCCCCCC1C(=O)OC1CCCCCOC(=O)NC(C)C (mixture of isomers) [Example 3, cis/trans-5-(3-hexyl-4-oxo-oxetan-2-yl)pentyl-isopropyl carbamate] | 88 nM
5 | CCCCCC[C@@H]1C(=O)O[C@H]1CCCCCOC(=O)Nc1ccc(Oc2ccccc2)cc1 [Example 6, (2S,3S)-5-(3-hexyl-4-oxo-oxetan-2-yl)-pentyl-(4-phenoxyphenyl)-carbamate] | 113 nM

Other lines, results leading:

Row | IC50 | Structure (SMILES)
6 | 319 nM | CCCCCCC1C(=O)OC1CCCCCOC(=O)Nc1ccc(Cl)c(Cl)c1 (stereo not shown) [Example 13]
7 | 28 nM | CCCCCCC1C(=O)OC1CCCCCOC(=O)NCCc1ccccc1 (stereo not shown) [Example 11]
8 | 187 nM | CCCCCCC1C(=O)OC1CCCCCOC(=O)NCc1ccccc1 (stereo not shown) [Example 8]
9 | 177 nM | CCCCCCC1C(=O)OC1CCCCCOC(=O)NC(=O)c1ccccc1 (stereo not shown) [Example 10]
10 | 107 nM | CCCCCCC1C(=O)OC1CCCOC(=O)Nc1ccccc1 (racemic) [Example 7]
11 | 67 nM | CCCCCCC1C(=O)OC1CCCCCOC(=O)Nc1ccc(OCC)cc1 (stereo not shown) [Example 9]

These molecules were tested on pancreatic lipase (assay: Pancreatic lipase-inhibiting action of intermediates of Formula IVa (statement, no method given)). Details: qualitative statement.
Assay type: biochemical

Row | Structure (SMILES) | action inhibiting pancreatic lipase
12 | CCCCCCC1C(=O)OC1CCCCCOC1CCCCO1 (stereo not shown) [3-hexyl-4-{5[(tetrahydro-2H-pyran-2-yl)oxy]pentyl}oxetan-2-one] | exhibit an action inhibiting pancreatic lipase
13 | CCCCCCC1C(=O)OC1CCCCCOCc1ccccc1 (stereo not shown) [3-hexyl-4-[5(benzyloxy)pentyl}]oxetan-2-one] | exhibit an action inhibiting pancreatic lipase
